From patent publication US4777182A, “6-Amidino-2-naphthyl 4-guanidinobenzoate derivatives and pharmaceutical composition containing them” (Torii & Co., Ltd., priority 1984, dated 1988) come the findings set out here.

One assay deals with Plasmin (Homo sapiens, UniProt P00747). The assay is described as follows: Anti-plasmin activity (inhibition of TAME hydrolysis). Type of assay: biochemical. As to conditions: TAME hydrolysis; read-out: ID50, Plasmin.
Another assay has as its target T1, C1s (Homo sapiens, UniProt P09871).
T1 sequence (P09871 16-437 limits assumed): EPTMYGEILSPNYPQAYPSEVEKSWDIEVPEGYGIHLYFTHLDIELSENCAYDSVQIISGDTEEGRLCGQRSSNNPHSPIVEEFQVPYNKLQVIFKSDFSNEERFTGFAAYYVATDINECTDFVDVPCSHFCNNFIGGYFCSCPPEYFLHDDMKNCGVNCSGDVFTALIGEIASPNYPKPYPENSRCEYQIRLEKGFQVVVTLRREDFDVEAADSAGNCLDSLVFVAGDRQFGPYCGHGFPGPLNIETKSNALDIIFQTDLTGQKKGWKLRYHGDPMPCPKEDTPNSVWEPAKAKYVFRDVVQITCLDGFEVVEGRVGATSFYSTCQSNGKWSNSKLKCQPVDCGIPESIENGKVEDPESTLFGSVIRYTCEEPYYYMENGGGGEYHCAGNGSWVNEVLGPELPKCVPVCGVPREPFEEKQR
T1 sequence (P09871 438-688 limits assumed): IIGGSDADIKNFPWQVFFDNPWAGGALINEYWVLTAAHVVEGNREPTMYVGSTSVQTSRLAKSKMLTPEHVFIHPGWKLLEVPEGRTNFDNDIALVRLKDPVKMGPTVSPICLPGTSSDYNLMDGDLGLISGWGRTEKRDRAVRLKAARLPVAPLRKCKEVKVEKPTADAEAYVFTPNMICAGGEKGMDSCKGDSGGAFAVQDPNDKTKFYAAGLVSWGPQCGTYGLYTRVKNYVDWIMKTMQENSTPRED
The assay is described as follows: Anti-C1s activity (inhibition of ATEE hydrolysis). It is filed as biochemical. As to conditions: read-out: ID50, C1s. The method, then: The anti-C1 esterase (C1r, C1s) activity was determined according to the method of Okamura et al. [K. Okamura, M. Muramatsu and B. Fujii, Biochem. Biophys. Acta, 295, 252-257 (1973)]. (2) The inhibition of complement mediated hemolysis was determined according to the method of Baker et al. [B. R. Baker and E. H. Erickson, J. Med. Chem., 12, 408-414 (1969)]. The figures in Table 2 have the following meanings:
C1s: Molar concentration of the test compound which inhibits 50% of the ability of C1s to hydrolyse ATEE (acetyltyrosin ethyl ester) (ID50).

Assay [1] deals with complement mediated hemolysis. The assay is described as follows: Inhibition of complement mediated hemolysis. It is filed as cell-based.
Excerpt: Therefore, when a known amount of complement admixed with a C1 esterase inhibitor is used, the hemolysis must be suppressed in proportion to the inhibitory activity.
In the next assay the target is T2, C1r (Homo sapiens, UniProt P00736).
T2 sequence (P00736 18-463 limits assumed): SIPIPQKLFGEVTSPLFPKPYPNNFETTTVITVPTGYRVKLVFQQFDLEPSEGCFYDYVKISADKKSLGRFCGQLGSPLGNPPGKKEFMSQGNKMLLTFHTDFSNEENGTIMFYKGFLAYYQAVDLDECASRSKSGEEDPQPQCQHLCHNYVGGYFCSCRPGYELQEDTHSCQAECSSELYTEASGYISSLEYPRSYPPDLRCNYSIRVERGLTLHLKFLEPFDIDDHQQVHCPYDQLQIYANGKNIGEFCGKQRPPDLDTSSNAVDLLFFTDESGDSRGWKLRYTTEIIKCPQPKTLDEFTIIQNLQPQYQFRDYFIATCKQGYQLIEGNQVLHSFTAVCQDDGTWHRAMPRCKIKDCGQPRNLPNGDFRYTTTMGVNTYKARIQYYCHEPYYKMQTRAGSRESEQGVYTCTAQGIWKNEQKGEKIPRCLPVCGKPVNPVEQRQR
T2 sequence (P00736 464-705 limits assumed): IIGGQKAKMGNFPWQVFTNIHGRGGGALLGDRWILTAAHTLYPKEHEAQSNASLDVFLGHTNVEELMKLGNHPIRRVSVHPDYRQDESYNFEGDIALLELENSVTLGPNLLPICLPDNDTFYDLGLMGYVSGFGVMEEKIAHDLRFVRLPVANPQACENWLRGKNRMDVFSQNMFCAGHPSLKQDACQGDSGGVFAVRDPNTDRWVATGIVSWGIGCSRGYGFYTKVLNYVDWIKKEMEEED
The assay is described as follows: Anti-C1r activity (inhibition of AAME hydrolysis). As to conditions: for inhibition at 10 µM: at 1×10^-5 M, read-out: percent inhibition, C1r (figure in parentheses); for IC50: AAME hydrolysis, read-out: ID50, C1r. Type of assay: biochemical. The method, then: The anti-C1 esterase (C1r, C1s) activity was determined according to the method of Okamura et al. [K. Okamura, M. Muramatsu and B. Fujii, Biochem. Biophys. Acta, 295, 252-257 (1973)]. (2) The inhibition of complement mediated hemolysis was determined according to the method of Baker et al. [B. R. Baker and E. H. Erickson, J. Med. Chem., 12, 408-414 (1969)]. The figures in Table 2 have the following meanings: C1r: […]

Another assay deals with Thrombin (Homo sapiens, UniProt P00734). Put plainly: biochemical. As to conditions: for IC50: TAME hydrolysis, read-out: ID50, Thrombin.
A further assay deals with Kallikrein. The assay is described as follows: Anti-kallikrein activity (inhibition of TAME hydrolysis). As to conditions: read-out: ID50, Kallikrein. It is filed as biochemical.
In another assay the target is T3, Trypsin (Bos taurus, UniProt P00760).
T3 sequence (P00760 24-246): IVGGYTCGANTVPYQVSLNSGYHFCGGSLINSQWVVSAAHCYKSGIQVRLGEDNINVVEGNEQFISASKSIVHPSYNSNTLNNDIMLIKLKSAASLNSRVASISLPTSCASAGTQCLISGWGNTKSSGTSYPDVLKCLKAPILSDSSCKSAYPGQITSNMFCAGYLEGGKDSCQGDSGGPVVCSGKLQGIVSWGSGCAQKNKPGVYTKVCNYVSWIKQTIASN
Put plainly: Anti-trypsin activity (inhibition of TAME hydrolysis). It is filed as biochemical. As to conditions: read-out: ID50, Trypsin.

Plasmin, sequence (P00747 97-580 limits assumed, species assumed): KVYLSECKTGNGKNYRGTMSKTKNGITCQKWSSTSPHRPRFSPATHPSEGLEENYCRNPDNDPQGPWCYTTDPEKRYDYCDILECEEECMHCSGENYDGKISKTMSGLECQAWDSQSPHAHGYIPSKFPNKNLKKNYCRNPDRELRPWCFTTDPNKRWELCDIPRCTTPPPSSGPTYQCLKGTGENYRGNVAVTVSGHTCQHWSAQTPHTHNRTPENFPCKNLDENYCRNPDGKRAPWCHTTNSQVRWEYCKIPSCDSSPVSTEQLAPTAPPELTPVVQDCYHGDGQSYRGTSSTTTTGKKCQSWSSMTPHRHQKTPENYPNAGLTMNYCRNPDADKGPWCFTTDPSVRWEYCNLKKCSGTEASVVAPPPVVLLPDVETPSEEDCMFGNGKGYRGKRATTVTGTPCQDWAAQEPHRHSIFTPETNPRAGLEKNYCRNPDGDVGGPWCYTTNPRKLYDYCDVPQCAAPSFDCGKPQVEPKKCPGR
Plasmin, sequence (P00747 581-810 limits assumed, species assumed): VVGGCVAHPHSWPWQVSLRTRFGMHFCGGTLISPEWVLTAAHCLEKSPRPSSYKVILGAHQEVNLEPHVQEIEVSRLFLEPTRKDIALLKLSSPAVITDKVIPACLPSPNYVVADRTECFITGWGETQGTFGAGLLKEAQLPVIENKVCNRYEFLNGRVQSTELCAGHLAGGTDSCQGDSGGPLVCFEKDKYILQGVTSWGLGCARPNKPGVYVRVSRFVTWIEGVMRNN

With `CN1CCNC1=Nc1ccc(C(=O)Oc2ccc3cc(C(=N)N)ccc3c2)cc1` [compound 3], the IC50 stood at 1000 nM on Plasmin; 300 nM at C1s; 800 nM at Thrombin; 600 nM with Kallikrein; 300 nM on Trypsin. For the same compound, the results for the “Inhibition of complement mediated hemolysis (%)” value (“Inhibition … (%)” for short) in assay [1] (1 × 10^-5), in assay [1] (1 × 10^-6) and in assay [1] (1 × 10^-7) were 93%, 25% and 0%, respectively. For the same compound, the inhibition (commonly the percentage by which the read-out fell short of the control) at 10 µM at C1r worked out at 38%.
On to `CC1CNC(Nc2ccc(C(=O)Oc3ccc4cc(C(=N)N)ccc4c3)cc2)=N1` (stereo not shown) [compound 4], for which the IC50 at Plasmin amounted to 1000 nM; on C1s it was 400 nM; at C1r, 10000 nM; at Thrombin it was 2000 nM; in the assay with Kallikrein, 400 nM; on Trypsin, 3000 nM. For the same compound, the “Inhibition … (%)” value in assay [1] (1 × 10^-5) is 100%; in assay [1] (1 × 10^-6) it was 96%; in assay [1] (1 × 10^-7), 48%.
As to `N=C(N)c1ccc2cc(OC(=O)c3ccc(NC4=NCCCN4)cc3)ccc2c1` [compound 5], the IC50 amounted to 1000 nM at Plasmin; 300 nM on C1s; 2000 nM at Thrombin; 500 nM with Kallikrein; 6000 nM on Trypsin. For the same compound, the “Inhibition … (%)” value was determined as 98% in assay [1] (1 × 10^-5), 83% in assay [1] (1 × 10^-6) and 5% in assay [1] (1 × 10^-7). For the same compound, on C1r, the inhibition at 10 µM turned out to be 41%.
For `N=C(N)c1ccc2cc(OC(=O)c3ccc(NC4=NC5CCCCC5N4)cc3)ccc2c1` (stereo not shown) [compound 6], the IC50 was 3000 nM on Plasmin; 400 nM at C1s; 9000 nM on C1r; 2000 nM at Thrombin; 900 nM in the assay with Kallikrein; 2000 nM on Trypsin. Also, the “Inhibition … (%)” value worked out at 100% in assay [1] (1 × 10^-5), 100% in assay [1] (1 × 10^-6) and 75% in assay [1] (1 × 10^-7).
For `N=C(N)c1ccc2cc(OC(=O)c3ccc(Nc4ncc[nH]4)cc3)ccc2c1` [compound 7], the IC50 at Plasmin was determined as 5000 nM; at C1s, 300 nM; at C1r, 3000 nM; on Thrombin, 6000 nM; with Kallikrein it was 4000 nM; at Trypsin, 600 nM. The entries for the “Inhibition … (%)” value in assay [1] (1 × 10^-5), in assay [1] (1 × 10^-6) and in assay [1] (1 × 10^-7) were 96%, 46% and 4%, respectively.
Regarding `CNC(=N)Nc1ccc(C(=O)Oc2ccc3cc(C(=N)N)ccc3c2)cc1` [compound 8], the IC50 worked out at 3000 nM on Plasmin; 2000 nM on C1s; 60 nM on Thrombin; 3000 nM in the assay with Kallikrein; 4000 nM on Trypsin. The results for the “Inhibition … (%)” value in assay [1] (1 × 10^-5), in assay [1] (1 × 10^-6) and in assay [1] (1 × 10^-7) were 100%, 93% and 34%, respectively. In addition, the inhibition at 10 µM at C1r was determined as 47%.
For the compound `CN(C)C(=N)Nc1ccc(C(=O)Oc2ccc3cc(C(=N)N)ccc3c2)cc1` [compound 9], the IC50 at Plasmin was determined as 2000 nM; on C1s, 400 nM; on Thrombin it was 600 nM; with Kallikrein it was 900 nM; on Trypsin, 6000 nM. Moreover, the figures for the “Inhibition … (%)” value in assay [1] (1 × 10^-5), in assay [1] (1 × 10^-6) and in assay [1] (1 × 10^-7) were 100%, 68% and 8%, respectively. For the same compound, the inhibition at 10 µM on C1r came out at 41%.
With `CCNC(=N)Nc1ccc(C(=O)Oc2ccc3cc(C(=N)N)ccc3c2)cc1` [compound 10], the IC50 at Plasmin turned out to be 5000 nM; on C1s it was 800 nM; at Thrombin it was 6000 nM; with Kallikrein, 400 nM; at Trypsin it was 2000 nM. Also, the “Inhibition … (%)” value came out at 100% in assay [1] (1 × 10^-5), 86% in assay [1] (1 × 10^-6) and 20% in assay [1] (1 × 10^-7). The inhibition at 10 µM at C1r stood at 48%.
Turning to `CCNC(=NC)Nc1ccc(C(=O)Oc2ccc3cc(C(=N)N)ccc3c2)cc1` [compound 11], the IC50 at C1s was determined as 200 nM. Besides, the entries for the “Inhibition … (%)” value in assay [1] (1 × 10^-5), in assay [1] (1 × 10^-6) and in assay [1] (1 × 10^-7) were 100%, 57% and 0%, respectively. Further, the inhibition at 10 µM at C1r was determined as 24%.
On to `CCN=C(NCC)Nc1ccc(C(=O)Oc2ccc3cc(C(=N)N)ccc3c2)cc1` [compound 12], for which, on C1s, the IC50 came out at 80 nM. Also, the “Inhibition … (%)” value in assay [1] (1 × 10^-5) worked out at 100%; in assay [1] (1 × 10^-6) it was 59%; in assay [1] (1 × 10^-7), 0%. Moreover, on C1r, the inhibition at 10 µM is 24%.
Turning to `CCCCNC(=N)Nc1ccc(C(=O)Oc2ccc3cc(C(=N)N)ccc3c2)cc1` [compound 13], the IC50 at Plasmin stood at 500 nM; on C1s it was 500 nM; at Thrombin, 1000 nM; with Kallikrein it was 900 nM; on Trypsin, 2000 nM. Further, the “Inhibition … (%)” value in assay [1] (1 × 10^-5) is 100%; in assay [1] (1 × 10^-6), 78%; in assay [1] (1 × 10^-7) it was 3%. The inhibition at 10 µM at C1r is 46%.
For `N=C(NCCO)Nc1ccc(C(=O)Oc2ccc3cc(C(=N)N)ccc3c2)cc1` [compound 15], the IC50 on Plasmin came out at 2000 nM; on C1s, 900 nM; at C1r it was 5000 nM; on Thrombin, 1000 nM; with Kallikrein, 1000 nM; on Trypsin, 2000 nM. For the same compound, the “Inhibition … (%)” value in assay [1] (1 × 10^-5) is given as 96%; in assay [1] (1 × 10^-6), 52%; in assay [1] (1 × 10^-7), 6%.
As for `CC(=O)NCCNC(=N)Nc1ccc(C(=O)Oc2ccc3cc(C(=N)N)ccc3c2)cc1` [compound 16], the IC50 on Plasmin is 900 nM; at C1s, 3000 nM; in the assay on Kallikrein, 3000 nM; at Trypsin it was 4000 nM. The “Inhibition … (%)” value worked out at 100% in assay [1] (1 × 10^-5), 89% in assay [1] (1 × 10^-6) and 25% in assay [1] (1 × 10^-7). The inhibition at 10 µM at C1r is 35%; on Thrombin (at 1×10^-5 M, read-out: percentage inhibition, Thrombin (figure in parentheses)) it was 49%.
